Test results: ChEMBL document CHEMBL1649268, “Comparative in vitro activity profile of oritavancin against recent gram-positive clinical isolates” (2009)

How the values were obtained:
Format in all cases: functional
[1] = Antimicrobial activity against erythromycin-susceptible Streptococcus Group C clinical isolates by broth microdilution method; settings: Streptococcus sp. 'group C'
[2] = tested on: Staphylococcus epidermidis; test: Antimicrobial activity against oxacillin-resistant Staphylococcus epidermidis clinical isolates by broth microdilution method
[3] = tested on: Staphylococcus epidermidis; test: Antimicrobial activity against Staphylococcus epidermidis clinical isolates by broth microdilution method
[4] = tested on: Streptococcus; test: Antimicrobial activity against erythromycin-susceptible Streptococcus Group F clinical isolates by broth microdilution method
[5] = tested on: Streptococcus agalactiae; test: Antimicrobial activity against Streptococcus agalactiae clinical isolates by broth microdilution method
[6] = Antimicrobial activity against erythromycin-susceptible Streptococcus Group G clinical isolates by broth microdilution method; settings: Streptococcus sp. 'group G'
[7] = tested on: Enterococcus faecium; test: Antimicrobial activity against Enterococcus faecium clinical isolates by broth microdilution method
[8] = Antimicrobial activity against Streptococcus Group C clinical isolates by broth microdilution method; settings: Streptococcus sp. 'group C'
[9] = tested on: Streptococcus pneumoniae; test: Antimicrobial activity against penicillin-susceptible Streptococcus pneumoniae clinical isolates by broth microdilution method
[10] = tested on: Enterococcus faecium; test: Antimicrobial activity against Enterococcus faecium expressing VanA gene clinical isolates by broth microdilution method
[11] = Antimicrobial activity against erythromycin-nonsusceptible Streptococcus Group G clinical isolates by broth microdilution method; settings: Streptococcus sp. 'group G'
[12] = tested on: Staphylococcus haemolyticus; test: Antimicrobial activity against Staphylococcus haemolyticus clinical isolates by broth microdilution method
[13] = tested on: Staphylococcus aureus; test: Antimicrobial activity against heterogeneous vancomycin-intermediate Staphylococcus aureus clinical isolates
[14] = tested on: Streptococcus agalactiae; test: Antimicrobial activity against erythromycin-nonsusceptible Streptococcus agalactiae clinical isolates by broth microdilution method
[15] = tested on: Enterococcus faecalis; test: Antimicrobial activity against vancomycin-nonsusceptible Enterococcus faecalis clinical isolates by broth microdilution method
[16] = tested on: Staphylococcus aureus; test: Antimicrobial activity against Staphylococcus aureus clinical isolates by broth microdilution method
[17] = tested on: Enterococcus faecium; test: Antimicrobial activity against vancomycin-susceptible Enterococcus faecium clinical isolates by broth microdilution method
[18] = tested on: Staphylococcus haemolyticus; test: Antimicrobial activity against oxacillin-resistant Staphylococcus haemolyticus clinical isolates by broth microdilution method
[19] = tested on: Staphylococcus aureus; test: Antimicrobial activity against vancomycin-intermediate Staphylococcus aureus clinical isolates
[20] = tested on: Streptococcus agalactiae; test: Antimicrobial activity against erythromycin-susceptible Streptococcus agalactiae clinical isolates by broth microdilution method
[21] = tested on: Staphylococcus aureus; test: Antimicrobial activity against vancomycin-resistant Staphylococcus aureus clinical isolates
[22] = tested on: Staphylococcus aureus; test: Antimicrobial activity against vancomycin- susceptible Staphylococcus aureus clinical isolates
[23] = tested on: Streptococcus; test: Antimicrobial activity against erythromycin-nonsusceptible Streptococcus Group F clinical isolates by broth microdilution method
[24] = tested on: Streptococcus pyogenes; test: Antimicrobial activity against erythromycin-susceptible Streptococcus pyogenes clinical isolates by broth microdilution method
[25] = tested on: Streptococcus pneumoniae; test: Antimicrobial activity against Streptococcus pneumoniae clinical isolates by broth microdilution method
[26] = tested on: Enterococcus faecalis; test: Antimicrobial activity against Enterococcus faecalis expressing VanB gene clinical isolates by broth microdilution method
[27] = tested on: Staphylococcus aureus; test: Antimicrobial activity against oxacillin-susceptible Staphylococcus aureus clinical isolates by broth microdilution method
[28] = tested on: Streptococcus pyogenes; test: Antimicrobial activity against erythromycin-nonsusceptible Streptococcus pyogenes clinical isolates by broth microdilution method
[29] = Antimicrobial activity against Streptococcus Group G clinical isolates by broth microdilution method; settings: Streptococcus sp. 'group G'
[30] = Antimicrobial activity against erythromycin-nonsusceptible Streptococcus Group C clinical isolates by broth microdilution method; settings: Streptococcus sp. 'group C'
[31] = tested on: Enterococcus faecalis; test: Antimicrobial activity against vancomycin-susceptible Enterococcus faecalis clinical isolates by broth microdilution method
[32] = tested on: Staphylococcus epidermidis; test: Antimicrobial activity against oxacillin-susceptible Staphylococcus epidermidis clinical isolates by broth microdilution method
[33] = tested on: Streptococcus pneumoniae; test: Antimicrobial activity against penicillin-resistant Streptococcus pneumoniae clinical isolates by broth microdilution method
[34] = tested on: Enterococcus faecium; test: Antimicrobial activity against vancomycin-nonsusceptible Enterococcus faecium clinical isolates by broth microdilution method
[35] = tested on: Streptococcus pyogenes; test: Antimicrobial activity against Streptococcus pyogenes clinical isolates by broth microdilution method
[36] = tested on: Enterococcus faecium; test: Antimicrobial activity against Enterococcus faecium expressing VanB gene clinical isolates by broth microdilution method
[37] = tested on: Staphylococcus haemolyticus; test: Antimicrobial activity against oxacillin-susceptible Staphylococcus haemolyticus clinical isolates by broth microdilution method
[38] = tested on: Streptococcus; test: Antimicrobial activity against Streptococcus Group F clinical isolates by broth microdilution method
[39] = tested on: Staphylococcus aureus; test: Antimicrobial activity against oxacillin-resistant Staphylococcus aureus clinical isolates by broth microdilution method
[40] = tested on: Enterococcus faecalis; test: Antimicrobial activity against Enterococcus faecalis expressing VanA gene clinical isolates by broth microdilution method
[41] = tested on: Streptococcus pneumoniae; test: Antimicrobial activity against penicillin-intermediate Streptococcus pneumoniae clinical isolates by broth microdilution method
[42] = tested on: Enterococcus faecalis; test: Antimicrobial activity against Enterococcus faecalis clinical isolates by broth microdilution method

CN[C@H](CC(C)C)C(=O)N[C@H]1C(=O)N[C@@H](CC(N)=O)C(=O)N[C@H]2C(=O)N[C@H]3C(=O)N[C@H](C(=O)N[C@H](C(=O)O)c4cc(O)cc(O)c4-c4cc3ccc4O)[C@H](O[C@H]3C[C@](C)(N)[C@@H](O)[C@H](C)O3)c3ccc(c(Cl)c3)Oc3cc2cc(c3O[C@@H]2O[C@H](CO)[C@@H](O)[C@H](O)[C@H]2O[C@H]2C[C@](C)(NCc3ccc(-c4ccc(Cl)cc4)cc3)[C@@H](O)[C@H](C)O2)Oc2ccc(cc2Cl)[C@H]1O [ORITAVANCIN]
1 µg/mL: MIC90 [13] | MIC90 [15] | MIC90 [19] | MIC90 [40]
0.25 µg/mL: MIC90 [2] | MIC90 [3] | MIC90 [5] | MIC90 [10] | MIC90 [11] | MIC90 [14] | MIC90 [20] | MIC90 [23] | MIC90 [24] | MIC90 [28] | MIC90 [30] | MIC90 [32] | MIC90 [34] | MIC90 [35]
8 ng/mL: MIC90 [25] | MIC90 [33] | MIC90 [41]
≤ 0.5 ng/mL: MIC [1]
0.06 µg/mL: MIC90 [26] | MIC90 [31] | MIC90 [36] | MIC90 [37] | MIC90 [42]
4 ng/mL: MIC90 [9]
0.03 µg/mL: MIC90 [17]
0.12 µg/mL: MIC90 [7] | MIC90 [12] | MIC90 [16] | MIC90 [18] | MIC90 [22] | MIC90 [27] | MIC90 [39]
0.5 µg/mL: MIC90 [4] | MIC90 [6] | MIC90 [8] | MIC90 [21] | MIC90 [29] | MIC90 [38]
